Molecules are shown by their SMILES.

The target of the first experiment is T1, full-length hepatitis C viral protein NS3•4A (Hepatitis C virus genotype 1a, UniProt P27958).
T1 construct: hexa-histidine (N); made in house; host or cells: Sf9 insect cells (baculovirus, pVL1392)
The experiment in a line: biochemical. Further details: species or system HCV sub-type strain 1a. To be noted: Enzyme Assay 2 (HCV NS3 Peptide Cleavage Assay) activity, apparent Ki class.
As for `CCC[C@H](NC(=O)[C@@H]1C[C@]2(CC(c3cccc(Cl)c3)=NO2)CN1C(=O)[C@@H](NC(=O)OC1CCCCCC1)C(C)(C)C)C(=O)C(=O)NC1CC1` [Compound 706], the Ki is less than 100 nM.

Take `CC1(CC(=O)N[C@H](C(=O)N2C[C@@]3(CC(c4cccc(Cl)c4)=NO3)C[C@H]2C(=O)N[C@@H](CC2CC2)C(=O)C(N)=O)C(C)(C)C)CCOCC1` [Compound 184]: the Ki is less than 100 nM.

As for `CC(C)(C)[C@H](NC(=O)CC1CCCCC1)C(=O)N1C[C@@]2(CC(c3cccc(Cl)c3)=NO2)C[C@H]1C(=O)N[C@@H](CC1CC1)C(=O)C(=O)NC1CC1` [Compound 50], the Ki was less than 100 nM.

On to `CCC[C@H](NC(=O)[C@@H]1C[C@]2(CC(c3cc(Cl)cc(OC)c3)=NO2)CN1C(=O)[C@@H](NC(=O)CC1CCCCC1)C(C)(C)C)C(=O)C(=O)NC1CC1` [Compound 250], for which the Ki was less than 100 nM.

For the molecule `CCC[C@H](NC(=O)[C@@H]1C[C@]2(CC(c3ccc(F)c(Cl)c3)=NO2)CN1C(=O)[C@@H](NC(=O)CC1CCCCCC1)C(C)(C)C)C(=O)C(N)=O` [Compound 623], the Ki was less than 100 nM.

Consider `CCC[C@H](NC(=O)[C@@H]1C[C@]2(CC(c3cc(Cl)c(OC)cc3C)=NO2)CN1C(=O)[C@@H](NC(=O)OC1CCCC1)C(C)(C)C)C(=O)C(N)=O` [Compound 651], for which the Ki was in the range of 100 to 500 nM.

Turning to `CCC[C@H](NC(=O)[C@@H]1C[C@]2(CC(c3ccc(OCC)c(Cl)c3)=NO2)CN1C(=O)[C@@H](NC(=O)CC1CCCCC1)C(C)(C)C)C(=O)C(=O)NC1CC1` [Compound 556], the Ki was less than 100 nM.

Turning to `CCC[C@H](NC(=O)[C@@H]1C[C@]2(CC(c3cc(Cl)ccc3OC)=NO2)CN1C(=O)[C@@H](NC(=O)OC1CCCC1)C(C)(C)C)C(=O)C(=O)NC1CC1` [Compound 686], the Ki is less than 100 nM.

For the molecule `CCC[C@H](NC(=O)[C@@H]1C[C@]2(CC(c3cccc(Cl)c3)=NO2)CN1C(=O)[C@@H](NC(=O)OC(C)(C)C)C(C)(C)C)C(=O)C(=O)NC1CC1` [Compound 90], the Ki was less than 100 nM.

For `CCC[C@H](NC(=O)[C@@H]1C[C@]2(CC(c3cc(Cl)c(OC)cc3C)=NO2)CN1C(=O)[C@@H](NC(=O)CC(C)(C)C)C(C)(C)C)C(=O)C(=O)NC1CC1` [Compound 608], the Ki lay within 100 to 500 nM.

Turning to `COc1ccc(Cl)cc1C1=NO[C@]2(C1)C[C@@H](C(=O)N[C@@H](CC1CC1)C(=O)C(N)=O)N(C(=O)[C@@H](NC(=O)CC1CCCCCC1)C(C)(C)C)C2` [Compound 635], the Ki was less than 100 nM.

Turning to `CNC(=O)C(=O)[C@H](CC1CC1)NC(=O)[C@@H]1C[C@]2(CC(c3cc(C)c(OC)c(Cl)c3)=NO2)CN1C(=O)[C@@H](NC(=O)CC1CCCCC1)C(C)(C)C` [Compound 642], the Ki was less than 100 nM.

In the case of `CCC[C@H](NC(=O)[C@@H]1C[C@]2(CC(c3cccc4cccnc34)=NO2)CN1C(=O)[C@@H](NC(=O)CC1CCCCCC1)C(C)(C)C)C(=O)C(=O)NC` [Compound 596], the Ki was 100 to 500 nM.

Regarding `CCC[C@H](NC(=O)[C@@H]1C[C@]2(CC(c3ccc(F)c(Cl)c3)=NO2)CN1C(=O)[C@@H](NC(=O)CC1CCCCCC1)C(C)(C)C)C(=O)C(=O)NC` [Compound 610], the Ki was less than 100 nM.

Regarding `CCC[C@H](NC(=O)[C@@H]1C[C@]2(CC(c3cc(Cl)c(OC)cc3C)=NO2)CN1C(=O)[C@@H](NC(=O)OC1CCCC1)C(C)(C)C)C(=O)C(=O)NC1CC1` [Compound 666], the Ki was less than 100 nM.

On to `CCC[C@H](NC(=O)[C@@H]1C[C@]2(CC(c3cc(Cl)c(OC)cc3C)=NO2)CN1C(=O)[C@@H](NC(=O)CC1CCCCC1)C(C)(C)C)C(=O)C(N)=O` [Compound 620], for which the Ki was less than 100 nM.

`CCC[C@H](NC(=O)[C@@H]1C[C@]2(CC(c3cccc(Cl)c3)=NO2)CN1C(=O)[C@@H](NC(=O)CC1CC2CCC1C2)C1(OC)CC1)C(=O)C(=O)NC1CC1` (stereo partly shown) [Compound 346]: the Ki is less than 100 nM.

Take `CNC(=O)C(=O)[C@H](CC1CC1)NC(=O)[C@@H]1C[C@]2(CC(c3cc(Cl)c(OC)cc3OC)=NO2)CN1C(=O)[C@@H](NC(=O)CC1CCCCCC1)C(C)(C)C` [Compound 616]: the Ki is less than 100 nM.

Consider `CCC[C@H](NC(=O)[C@@H]1C[C@]2(CC(c3cc(C)c(OC)c(Cl)c3)=NO2)CN1C(=O)[C@@H](NC(=O)CC1CCCCC1)C(C)(C)C)C(=O)C(=O)NC` [Compound 641], for which the Ki was less than 100 nM.

Consider `COc1cc(C)c(C2=NO[C@]3(C2)C[C@@H](C(=O)N[C@@H](CC2CC2)C(=O)C(=O)NC2CC2)N(C(=O)[C@@H](NC(=O)CC2CCCCC2)C(C)(C)C)C3)cc1Cl` [Compound 709], for which the Ki is 100 to 500 nM.

As to `CNC(=O)C(=O)[C@H](CC1CC1)NC(=O)[C@@H]1C[C@]2(CC(c3cccc(Cl)c3)=NO2)CN1C(=O)[C@@H](NC(=O)C1C[C@@H]1c1ccccc1)C(C)(C)C` (stereo partly shown) [Compound 695], the Ki is less than 100 nM.

In the case of `CCC[C@H](NC(=O)[C@@H]1C[C@]2(CC(c3cc(C)c(OCC)c(Cl)c3)=NO2)CN1C(=O)[C@@H](NC(=O)OC1CCCC1)C(C)(C)C)C(=O)C(=O)NC` [Compound 785], the Ki was less than 100 nM.

For `COc1c(C)cc(C2=NO[C@]3(C2)C[C@@H](C(=O)N[C@@H](CC2CC2)C(=O)C(N)=O)N(C(=O)[C@@H](NC(=O)CC2CCCCC2)C(C)(C)C)C3)cc1Cl` [Compound 195], the Ki is less than 100 nM.

Consider `CNC(=O)C(=O)[C@H](CC1CC1)NC(=O)[C@@H]1C[C@]2(CC(c3cccc4cccnc34)=NO2)CN1C(=O)[C@@H](NC(=O)CC1CCCCC1)C(C)(C)C` [Compound 671], for which the Ki was 100 to 500 nM.

Still in this experiment, the particulars now being: Enzyme Assay 2, HCV NS3 Peptide Cleavage Assay, apparent Ki.
As for `CCC[C@H](NC(=O)[C@@H]1C[C@]2(CC(c3cc(Cl)c(C)cc3OC)=NO2)CN1C(=O)[C@@H](NC(=O)CC1CCCCC1)C(C)(C)C)C(=O)C(=O)NC1CC1` [Compound 820], the Ki is less than 100 nM.

Turning to `CCC[C@H](NC(=O)[C@@H]1C[C@]2(CC(c3cc(C)c(OCC)c(C)c3)=NO2)CN1C(=O)[C@@H](NC(=O)[C@@H]1C[C@H]1C1CCCCC1)C(C)(C)C)C(=O)C(=O)NC1CC1` [Compound 984], the Ki was less than 100 nM.

Turning to `CCOc1cc(OC)c(C2=NO[C@]3(C2)C[C@@H](C(=O)N[C@@H](CC2CC2)C(=O)C(=O)NC)N(C(=O)[C@@H](NC(=O)OC(C)(C)C)C(C)(C)C)C3)cc1Cl` [Compound 942], the Ki was less than 100 nM.

As for `COc1ccc(Cl)cc1C1=NO[C@]2(C1)C[C@@H](C(=O)N[C@@H](CC1CC1)C(=O)C(N)=O)N(C(=O)[C@@H](NC(=O)[C@@H]1C[C@H]1c1ccccc1)C(C)(C)C)C2` [Compound 901], the Ki was less than 100 nM.

As to `CCC[C@H](NC(=O)[C@@H]1C[C@]2(CC(c3cc(C)c(OCC)c(C)c3)=NO2)CN1C(=O)[C@@H](NC(=O)[C@@H]1C[C@H]1c1ccccc1)C(C)(C)C)C(=O)C(=O)NC` [Compound 828], the Ki is less than 100 nM.

Take `COc1c(C)cc(C2=NO[C@]3(C2)C[C@@H](C(=O)N[C@@H](CC2CC2)C(=O)C(N)=O)N(C(=O)[C@@H](NC(=O)[C@@H]2C[C@H]2c2ccccc2)C(C)(C)C)C3)cc1Cl` [Compound 811]: the Ki was less than 100 nM.

In the case of `CC(C)(C)[C@H](NC(=O)[C@H]1C[C@@H]1c1ccccc1)C(=O)N1C[C@@]2(CC(c3cccc4cccnc34)=NO2)C[C@H]1C(=O)N[C@@H](CC1CC1)C(=O)C(N)=O` [Compound 805], the Ki is less than 100 nM.

With `CCC[C@H](NC(=O)[C@@H]1C[C@]2(CC(c3cc(C)c(OCC)c(C)c3)=NO2)CN1C(=O)[C@@H](NC(=O)[C@@H]1C[C@H]1c1ccccn1)C(C)(C)C)C(=O)C(=O)NC1CC1` [Compound 981], the Ki is less than 100 nM.

Consider `CCC[C@H](NC(=O)[C@@H]1C[C@]2(CC(c3cccc(Cl)c3)=NO2)CN1C(=O)[C@@H](NC(=O)[C@@H]1CC12CCOCC2)C(C)(C)C)C(=O)C(=O)NC1CC1` [Compound 923], for which the Ki is less than 100 nM.

As to `CNC(=O)C(=O)[C@H](CC1CC1)NC(=O)[C@@H]1C[C@]2(CC(c3cccc(Cl)c3)=NO2)CN1C(=O)[C@@H](NC(=O)C1CC1c1ccn(C)n1)C(C)(C)C` (stereo partly shown) [Compound 955], the Ki is less than 100 nM.

Take `CCC[C@H](NC(=O)[C@@H]1C[C@]2(CC(c3cccc(Cl)c3)=NO2)CN1C(=O)[C@@H](NC(=O)C1(c2ccccc2)CC1)C(C)(C)C)C(=O)C(=O)NC1CC1` [Compound 961]: the Ki is greater than 500 nM.

For `CNC(=O)C(=O)[C@H](CC1CC1)NC(=O)[C@@H]1C[C@]2(CC(c3cccc(Cl)c3)=NO2)CN1C(=O)[C@@H](NC(=O)[C@H]1C[C@H]1c1ccccc1)C(C)(C)C` [Compound 887], the Ki was 100 to 500 nM.

For `CCC[C@H](NC(=O)[C@@H]1C[C@]2(CC(c3cc(Cl)c(OC)cc3OC)=NO2)CN1C(=O)[C@@H](NC(=O)[C@@H]1CC1c1ccccc1)C(C)(C)C)C(=O)C(N)=O` (stereo partly shown) [Compound 801], the Ki is less than 100 nM.

Regarding `CCC[C@H](NC(=O)C1C[C@]2(CC(c3cc(C)c(OC)c(C)c3)=NO2)CN1C(=O)[C@@H](NC(=O)[C@@H]1C[C@H]1c1c[nH]cn1)C(C)(C)C)C(=O)C(=O)NC1CC1` (stereo partly shown) [Compound 907], the Ki was 100 to 500 nM.

For `CCC[C@H](NC(=O)[C@@H]1C[C@]2(CC(c3cc(Cl)ccc3OC)=NO2)CN1C(=O)[C@@H](NC(=O)[C@@H]1C[C@H]1c1ccccc1)C(C)(C)C)C(=O)C(=O)NC` [Compound 969], the Ki was less than 100 nM.

Turning to `CCC[C@H](NC(=O)[C@@H]1C[C@]2(CC(c3cc(C)c(OCC)c(C)c3)=NO2)CN1C(=O)[C@@H](NC(=O)[C@H]1C[C@@H]1c1ccc(F)cc1)C(C)(C)C)C(=O)C(=O)NC1CC1` [Compound 996], the Ki is less than 100 nM.

As to `CNC(=O)C(=O)[C@H](CC1CC1)NC(=O)[C@@H]1C[C@]2(CC(c3cccc(Cl)c3)=NO2)CN1C(=O)[C@@H](NC(=O)[C@@H]1C[C@H]1c1c[nH]cn1)C(C)(C)C` [Compound 832], the Ki fell in the range of 100 to 500 nM.

As for `CCC[C@H](NC(=O)[C@@H]1C[C@]2(CC(c3cc(C)c(OCC)c(C)c3)=NO2)CN1C(=O)[C@@H](NC(=O)[C@@H]1C[C@H]1c1ccccc1OC)C(C)(C)C)C(=O)C(=O)NC` [Compound 991], the Ki is less than 100 nM.

Regarding `CCNC(=O)C(=O)[C@H](CC1CC1)NC(=O)[C@@H]1C[C@]2(CC(c3cc(C)c(OC)c(Cl)c3)=NO2)CN1C(=O)[C@@H](NC(=O)[C@@H]1C[C@H]1c1ccccc1)C(C)(C)C` [Compound 856], the Ki was less than 100 nM.
